Tests used:
α-glucosidase [1] = test: PNPG hydrolysis assay, absorbance at […] nm; maximum inhibition […] at […]; format: biochemical
α-glucosidase [2] = test: PNPG hydrolysis assay, absorbance at […] nm; format: biochemical

Compound	IC50 (α-glucosidase [1]) [µM]	IC50 (α-glucosidase [2]) [µM]
eleutheroside E	0.19	–
N#CC(O)c1ccc(O)cc1 (centres unmarked) [4-hydroxymandelonitrile]	–	15.8
